Source: US5308605A, “Diagnosis of tumors with 5-radioiodo-2'-deoxyuridine” (priority 1992, dated 1994)
Like-named read-outs stand apart in the source and are kept apart here.

Assays:
[1] = humans; unincorporated IUdR; cited from earlier work
[2] = mouse; unincorporated IUdR; cited from earlier work
[3] = tested on: murine ovarian tumor (MOT); assay: Antineoplastic effect (survival fraction, median survival) in mouse ascites tumor; assay type: in vivo, C3HeB/FeJ mice
Description: 2. ^125 IUdR Is an Effective Antineoplastic Agent In A Mouse Ascites Tumor. The tumor used in these experiments is the same murine ovarian tumor described above. We have determined the median survival of mice after i.p. challenge with various tumor cell inocula.
The relatively long survival of tumor-bearing mice facilitates quantitative evaluation of tumor cell killing after treatment with ^125 IUdR and can be used to calculate a cellular survival fraction.

[4] = tested on: transitional cell carcinoma of the bladder; assay: Planar scintigraphy of MNU-induced bladder cancer; assay type: in vivo, Fisher 344 rats; conditions: day 3, intravesical
Method: The carcinogen N-methyl-N-nitrosourea (MNU), known to induce transitional cell carcinoma of the bladder, was instilled directly into the bladder lumen of 4-to-5-week old female Fisher 344 rats (20 animals) via bladder catheterization using a 22-gauge angiocatheter (1.5 mg/0.15 ml saline intravesically, every other week for a total of 4 doses). The drinking water was supplemented with a combination of trimethoprim-sulfamethoxasole, neomycin sulfate and polymixin B. Twelve to sixteen weeks after the last MNU infusion, the bladder was catheterized and emptied and [^125 I/^131 I ]IUdR (6. 4 to 10. 9 MBq [^125 I]IUdR [172 to 294 μCi] and 10.7 MBq [^131 I ]IUdR [290 μCi]) was administered through the catheter in a 100- or 200- μl volume and left in place for 2 h. The bladder contents were then withdrawn and the bladder rinsed with normal saline (5×1-ml). Nontumor-bearing control rats (16 animals) were injected by the same route with identical amounts of [^125 I/^131 I]IUdR. The drinking water of all animals was supplemented with 0. 1% potassium iodide from 48 to 72 h prior to the administration of the radiopharmaceutical up to the time of sacrifice. The tumor-bearing rats and the non-tumor bearing control rats were divided into Group A consisting of 12 tumor-bearing and 12 control rats, and Group B consisting of 8 tumor-bearing and 4 control rats. […]

[5] = tested on: murine ovarian tumor (MOT); assay: Scintigraphic imaging of ovarian tumor-bearing mice; assay type: in vivo, C3HeB/FeJ mice; conditions: later than 1 h (2, 16, 24 hr); 300 μCi
9 L gliosarcoma [6] = assay: Scintigraphic imaging of brain tumors after intratumor injection; conditions: control animals; images 12-38 h
9 L gliosarcoma [7] = assay: Biodistribution 40 h after injection in brain tumor-bearing rats
[8] = tested on: transitional cell carcinoma of the bladder; assay type: in vivo, Fisher 344 rats
Description: No carrier added [^125 I/^131 I] IUdR was synthesized as described previously, see U.S. Pat. No. 4,851,520 hereby incorporated by reference, and purified on a C18 reverse phase HPLC column. The radiochemical purity of the product was>99% as determined by TLC with specific activities of 81.40 TBq/mmol and 96.94 GBq/mmol for [^125 I] IUdR and [^131 I] IUdR, respectively.
The carcinogen N-methyl-N-nitrosourea (MNU), known to induce transitional cell carcinoma of the bladder, was instilled directly into the bladder lumen of 4-to-5-week old female Fisher 344 rats (20 animals) via bladder catheterization using a 22-gauge angiocatheter (1.5 mg/0.15 ml saline intravesically, every other week for a total of 4 doses). […]
The biodistribution studies were conducted at 48 hours and at 1 week after administration of radiolabeled IUdR in order to quantitate the in vivo distribution of the radiopharmaceutical in terms of percent injected dose per gram of tissue (%ID/g) and to derive tumor to normal tissue ratios. Various organs and tissues of interest were excised, rinsed, blotted dry, weighed, and their radioactive content was determined in a gamma counter along with that of urine, stomach contents, blood and bone marrow.

DNA = assay: Microautoradiography of bladder, intestine and bone marrow; assay type: in vivo, Fisher 344 rats
Method: The carcinogen N-methyl-N-nitrosourea (MNU), known to induce transitional cell carcinoma of the bladder, was instilled directly into the bladder lumen of 4-to-5-week old female Fisher 344 rats (20 animals) via bladder catheterization using a 22-gauge angiocatheter (1.5 mg/0.15 ml saline intravesically, every other week for a total of 4 doses). The drinking water was supplemented with a combination of trimethoprim-sulfamethoxasole, neomycin sulfate and polymixin B. Twelve to sixteen weeks after the last MNU infusion, the bladder was catheterized and emptied and [^125 I/^131 I ]IUdR (6. 4 to 10. 9 MBq [^125 I]IUdR [172 to 294 μCi] and 10.7 MBq [^131 I ]IUdR [290 μCi]) was administered through the catheter in a 100- or 200- μl volume and left in place for 2 h. The bladder contents were then withdrawn and the bladder rinsed with normal saline (5×1-ml). Nontumor-bearing control rats (16 animals) were injected by the same route with identical amounts of [^125 I/^131 I]IUdR. The drinking water of all animals was supplemented with 0. 1% potassium iodide from 48 to 72 h prior to the administration of the radiopharmaceutical up to the time of sacrifice. The tumor-bearing rats and the non-tumor bearing control rats were divided into Group A consisting of 12 tumor-bearing and 12 control rats, and Group B consisting of 8 tumor-bearing and 4 control rats. Group A was sacrificed 48 hours after administration of the radiopharmaceutical while Group B was sacrificed one (1) week after administration of the radiopharmaceutical.
The specificity of targeting and the DNA-incorporation of [^125 I]IUdR were determined by microautoradiography. The distribution and frequency of grains were assessed over the entire section and compared to the histopathologic findings. At the time of the biodistribution studies, the small intestine and the large intestine were quickly frozen in isopentane and liquid nitrogen. Bone marrow smears were fixed in 100% methanol. After rinsing with normal saline, the bladder was fixed in situ with 10% buffered formaldehyde, excised, and subsequently embedded in paraffin. The tissues were then sectioned (5-7 μm thickness), fixed (except for the bladder sections already fixed in vivo) and processed for autoradiography as were the bone marrow smears.
The tissue sections and bone marrow slides were coated with NTB2 emulsion (Kodak) and stored desiccated at 4° C. in light-tight boxes. After various times of emulsion exposure (up to 7 months), the autoradiographic slides were developed for 3 min in D-19 developer (Kodak) and fixed for 5 min in D-11 fixer (Kodak). Finally, the tissue sections were washed in distilled water, stained with hematoxylin/eosin, dehydrated, cleared, and mounted in Permount. Bone marrow slides were stained with Giemsa stain. Tissue and bone marrow slides were then examined under light microscopy.

In the case of `O=c1[nH]c(=O)n([C@H]2C[C@H](O)[C@@H](CO)O2)cc1I` [IUdR, 5-Iodo-2'-deoxyuridine], the half-life in circulation [1] is given as “less than five” and the half-life in circulation [2] is given as “less than seven”.

For `O=c1[nH]c(=O)n([C@H]2C[C@H](O)[C@@H](CO)O2)cc1I` [[^131 I]IUdR, 5-iodo-2'-deoxyuridine], the decrease in survival ([3]; equivalent doses, 131I label) was “does not result in any decrease in survival”, the “scintigraphic activity in normal animals” value [4] was “virtual absence of activity in normal animals” and the “scintigraphic activity in tumor-bearing animals” value [4] was “only visible area of activity remaining in the tumor-bearing animals was over the region of the bladder”.

In the case of `O=c1[nH]c(=O)n([C@H]2C[C@H](O)[C@@H](CO)O2)cc1I` [^123 IUdR, 5-iodo-2'-deoxyuridine], the “focal area of abdominal activity, later time points” value [5] is reported as “persisted only in MOT-bearing mice while it cleared from the abdomen of animals without tumor”, the “survival fraction of tumor cells as a function of dose” value ([3]; 5 i.p. injections, 4 h intervals) is reported as “an exponential decrease is obtained similar to that observed with the ^125 IUdR data” and the “median survival of tumor-bearing animals” value ([3]; 5 i.p. injections, 4 h intervals, 24 h post tumor inoculation) is reported as “prolongs median survival of the tumor-bearing animals (FIG. 7 of the incorporated patent) in a dose-dependent fashion”. The “clearance of activity from the head” value (9 L gliosarcoma [6]) was “clearance of the activity from the head of all control animals by 12 h”, the “injected dose found in tumor” value (9 L gliosarcoma [7]; one animal, tumor occupied large portion of right brain specimen) was 25 % of the injected dose and the “injected dose per gram, right brain (injected side), sham-operated” value (9 L gliosarcoma [7]; sham-operated controls, mean±SD) was 0.09±0.02 %ID/g. For the same molecule, the “injected dose per gram, right brain (injected side), tumor-bearing” value (9 L gliosarcoma [7]; tumor-bearing animals, mean±SD, P<0.05 vs sham) was 0.36±0.14 %ID/g.

With `O=c1[nH]c(=O)n([C@H]2C[C@H](O)[C@@H](CO)O2)cc1I` [^125 IUdR, 5-iodo-2'-deoxyuridine] the “tumor cell survival fraction (plateau)” value ([3]; seven consecutive injections) was 10^-5, the “percent injected dose per gram of bladder, tumor-bearing vs control” value ([8]; 48 h) was “significant difference” and the “permeation to the systemic circulation” value ([8]; rat, not told) was “very low”. For the same molecule, the “penetration into the bladder wall” value (DNA; animals with infection/inflammation) was “potential for radiolabeled IUdR to penetrate deep within the bladder wall”, the “uptake in squamous metaplasia and bacteria” value (DNA; basal layer of squamous metaplasia, bacteria when active infection present) was “Uptake was also observed in the basal layer of squamous metaplasia and in bacteria when active infection was present” and the “cell-associated silver grains in bone marrow smears” value (DNA; bone marrow) was “free of cell-associated silver grains”. The “uptake in the urothelium of control animals” value (DNA; control animals) was “did not show uptake in the urothelium”, the “autoradiographic uptake by the tumor” value (DNA; hyperplasia and papillary carcinoma stages) was “uptake of radiolabeled IUdR by the tumor at the early stage of tumor development, i.e. the hyperplasia stage, as well as in the later papillary carcinoma stage” and the “silver grains in actively dividing normal epithelia” value (DNA; rat, in vivo) was “did not show the presence of silver grains”. For the same molecule, the “silver grains in normal urothelium” value (DNA; rat, in vivo) was “generally free of silver grains” and the “DNA incorporation by abnormal urothelium vs normal” value (DNA; tumor-bearing animals) was “always significantly higher”.
